According to ChEMBL document CHEMBL1201862, “PubChem BioAssay data set” (2004):
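Briefly, cells in 96-well plates were exposed to five compound concentrations for 48 h, and endpoints were estimated by linear interpolation. GI50 is the concentration that inhibits growth by half.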 Calls of active or inactive are those of the source. Cut-off read from the data, not from the text of the source: active = GI50 up to about 1.1 µM and inactive = higher.

What was measured:
Assay in all cases: NCI anticancer screen, dose series, 48 h
786-0 = tested on: 786-0
COLO 205 = tested on: COLO 205
HCT-116 = tested on: HCT-116
HCT-15 = tested on: HCT-15
KM12 = tested on: KM12
M14 = tested on: M14
MDA-MB-231 = tested on: MDA-MB-231
MOLT-4 = tested on: MOLT-4
NCI-H23 = tested on: NCI-H23
NCI-H522 = tested on: NCI-H522
OVCAR-5 = tested on: OVCAR-5
OVCAR-8 = tested on: OVCAR-8
RXF 393 = tested on: RXF 393
SN12C = tested on: SN12C
SNB-19 = tested on: SNB-19
T47D = tested on: T47D
U-251 = tested on: U-251
UACC-257 = tested on: UACC-257
UO-31 = tested on: UO-31

| Compound | GI50 (786-0) | GI50 (COLO 205) | GI50 (HCT-116) | GI50 (HCT-15) [µM] | GI50 (KM12) | GI50 (M14) | GI50 (MDA-MB-231) | GI50 (MOLT-4) | GI50 (NCI-H23) | GI50 (NCI-H522) | GI50 (OVCAR-5) | GI50 (OVCAR-8) | GI50 (RXF 393) | GI50 (SN12C) | GI50 (SNB-19) | GI50 (T47D) | GI50 (U-251) | GI50 (UACC-257) | GI50 (UO-31) |
| --- | --- | --- | --- | --- | --- | --- | --- | --- | --- | --- | --- | --- | --- | --- | --- | --- | --- | --- | --- |
| CCC(=O)Oc1c2ccsc2c(OC(=O)CC)c2ccsc12 | 2.13 µM (inactive) | 5.51 µM (inactive) | 0.332 µM (active) | 0.318 | 1.8 µM (inactive) | 0.161 µM (active) | 0.232 µM (active) | 0.75 µM (active) | 0.182 µM (active) | 0.474 µM (active) | 1.88 µM (inactive) | 0.366 µM (active) | 1 µM (active) | 0.353 µM (active) | 0.54 µM (active) | 1.56 µM (inactive) | 0.389 µM (active) | 0.171 µM (active) | 0.51 µM (active) |
| CN1CCN(C(=S)N(C(=O)c2cccs2)C2CCCCC2)CC1 | > 100 µM (inactive) | > 100 µM (inactive) | – | > 100 | > 100 µM (inactive) | > 100 µM (inactive) | > 100 µM (inactive) | > 10 µM (inactive) | > 100 µM (inactive) | > 100 µM (inactive) | > 100 µM (inactive) | > 100 µM (inactive) | > 100 µM (inactive) | > 100 µM (inactive) | > 100 µM (inactive) | > 100 µM (inactive) | > 100 µM (inactive) | > 100 µM (inactive) | > 100 µM (inactive) |
| C1=N\c2ccc(cc2)/N=C\c2ccc(cc2)OCc2cccc(n2)COc2ccc/1cc2 | > 100 µM (inactive) | > 100 µM (inactive) | > 100 µM (inactive) | > 100 | > 100 µM (inactive) | > 100 µM (inactive) | > 100 µM (inactive) | > 100 µM (inactive) | > 100 µM (inactive) | > 100 µM (inactive) | > 100 µM (inactive) | > 100 µM (inactive) | > 100 µM (inactive) | > 100 µM (inactive) | > 100 µM (inactive) | > 100 µM (inactive) | > 100 µM (inactive) | > 100 µM (inactive) | > 100 µM (inactive) |
| CCc1c[n+]([O-])c(C)cc1[N+](=O)[O-] | 97.1 µM (inactive) | 15.6 µM (inactive) | 26.3 µM (inactive) | 18.8 | 45.4 µM (inactive) | 40.2 µM (inactive) | 22.8 µM (inactive) | > 100 µM (inactive) | 74.1 µM (inactive) | 55.3 µM (inactive) | > 100 µM (inactive) | 46.2 µM (inactive) | 22.4 µM (inactive) | 53.7 µM (inactive) | > 100 µM (inactive) | > 100 µM (inactive) | 99.5 µM (inactive) | > 100 µM (inactive) | > 100 µM (inactive) |
| C=C1CC2(CCOc3ccc(Cl)cc32)OC1=O (stereo not drawn) | 2.15 µM (inactive) | 1.64 µM (inactive) | 1.63 µM (inactive) | 0.935 | 13.7 µM (inactive) | 2.54 µM (inactive) | 6.44 µM (inactive) | 0.805 µM (active) | 5.22 µM (inactive) | 0.885 µM (active) | 10.6 µM (inactive) | 4.59 µM (inactive) | 2.23 µM (inactive) | 7.69 µM (inactive) | 13.1 µM (inactive) | 4.93 µM (inactive) | 8.63 µM (inactive) | 5.74 µM (inactive) | 2.83 µM (inactive) |
| CC1(C)CC(=O)C2=C(C1)OC1=C(CC(C)(C)CC1=O)C2c1ccccc1Cl (stereo not drawn) | > 100 µM (inactive) | > 100 µM (inactive) | > 100 µM (inactive) | > 100 | – | > 100 µM (inactive) | 89.7 µM (inactive) | > 100 µM (inactive) | > 100 µM (inactive) | > 100 µM (inactive) | > 100 µM (inactive) | > 100 µM (inactive) | > 100 µM (inactive) | > 100 µM (inactive) | > 100 µM (inactive) | > 100 µM (inactive) | > 100 µM (inactive) | > 100 µM (inactive) | 1.94 µM (inactive) |
| C[C@H](NC(=O)c1ccc(CNC(=O)/C=C/c2cccc(Oc3ccccc3)c2)cc1)c1ccccc1 | 36.5 µM (inactive) | > 100 µM (inactive) | > 100 µM (inactive) | > 100 | > 100 µM (inactive) | > 100 µM (inactive) | > 100 µM (inactive) | 93.3 µM (inactive) | > 100 µM (inactive) | > 100 µM (inactive) | > 100 µM (inactive) | > 100 µM (inactive) | 26.7 µM (inactive) | > 100 µM (inactive) | 37.8 µM (inactive) | 98.2 µM (inactive) | 49.2 µM (inactive) | > 100 µM (inactive) | 46.1 µM (inactive) |
| Clc1ccc2c(NCCNC3CCCCC3)ccnc2c1 | 5.47 µM (inactive) | 1.36 µM (inactive) | 5.96 µM (inactive) | 5.4 | 6.28 µM (inactive) | 1.77 µM (inactive) | 9.62 µM (inactive) | 3.48 µM (inactive) | 15.7 µM (inactive) | 2.67 µM (inactive) | 14.9 µM (inactive) | 10.7 µM (inactive) | 8.95 µM (inactive) | 16.2 µM (inactive) | 15.9 µM (inactive) | 4.2 µM (inactive) | 5.5 µM (inactive) | – | 2.95 µM (inactive) |
| Cc1cc(C)c2c(c1)C/C(=C\c1ccccc1C(=O)O)C2=O | > 100 µM (inactive) | – | 76.6 µM (inactive) | 47.4 | > 100 µM (inactive) | > 100 µM (inactive) | > 100 µM (inactive) | 76.4 µM (inactive) | > 100 µM (inactive) | 66.2 µM (inactive) | > 100 µM (inactive) | 57 µM (inactive) | 51.9 µM (inactive) | > 100 µM (inactive) | > 100 µM (inactive) | 35.2 µM (inactive) | 7.46 µM (inactive) | > 100 µM (inactive) | 73.3 µM (inactive) |
| CN(C)/C=N/CCN1CCOCC1 | > 100 µM (inactive) | > 100 µM (inactive) | > 100 µM (inactive) | > 100 | – | > 100 µM (inactive) | > 100 µM (inactive) | > 100 µM (inactive) | > 100 µM (inactive) | > 100 µM (inactive) | > 100 µM (inactive) | > 100 µM (inactive) | > 100 µM (inactive) | > 100 µM (inactive) | > 100 µM (inactive) | > 100 µM (inactive) | > 100 µM (inactive) | > 100 µM (inactive) | > 100 µM (inactive) |
| NNc1nc2ccccc2c(=O)n1NC(=O)C(=O)Nc1cccc(C(F)(F)F)c1 | > 100 µM (inactive) | – | > 100 µM (inactive) | > 100 | > 100 µM (inactive) | > 100 µM (inactive) | > 100 µM (inactive) | > 100 µM (inactive) | > 100 µM (inactive) | > 100 µM (inactive) | > 100 µM (inactive) | > 100 µM (inactive) | > 100 µM (inactive) | > 100 µM (inactive) | > 100 µM (inactive) | > 100 µM (inactive) | > 100 µM (inactive) | > 100 µM (inactive) | > 100 µM (inactive) |
